In PMC7075946 (Frontiers in Immunology, 2020):
Entries after “also recorded” stand apart in the source; their conditions may differ.

What was measured:
[1] = system: A/Victoria/210/2009 (H3N2); test: ELISA of influenza-specific serum antibody titers in mice given adjuvanted A/Vic vaccine
[2] = system: A/Victoria/210/2009 (H3N2); test: Splenocyte restimulation, influenza-specific T cell responses (flow cytometry, MSD); assay type: in vivo, BALB/c mice; conditions: for influenza-specific T cell response (cytokine production of restimulated splenocytes): 5 days post-secondary vaccination, A/Vic restimulation, vs A/Vic alone
human PBMCs [3] = test: Human PBMC intracellular cytokine staining (flow cytometry); assay type: cell-based; conditions: for frequency of mDC producing IL-12p40 / frequency of classical monocytes producing IL-12p40: 1 h plus 5 h GolgiPlug
Protocol: (§1) Human blood was obtained from healthy adult donors through a University of Montana Institutional Review Board (IRB)-approved protocol. PBMCs were separated from whole blood via density gradient separation using Histopaque 1,077 (Sigma). For PBMC-based assays, cells were resuspended at the desired cell concentration in complete media (RPMI1640+10% FBS+antibiotics). Cells were treated with the indicated compound concentrations and stimulated for 6–24 h depending on the assay as indicated in the figure legends and assays outlined below.
For flow cytometry analysis of innate cytokines, PBMCs were stimulated with indicated concentration of compound for 1 h followed by 5 h incubation with GolgiPlug (BD, 1 μL/mL) at 37°C. Post-stimulation, cells were harvested and surface stained with viability dye, and monoclonal antibodies targeting CD3 AF700 (Tonbo Bioscience, UCHT1), CD19 AF700 (Tonbo Bioscience, HIB19), CD56 AF700 (Biolegend, 5.1H11), HLA-DR BV785 (Biolegend, L243), CD14 APC-Cy7 (Biolegend, 63D3), CD16 PE-Dazzle594 (Biolegend, 3G8), CD11c BV421 (Biolegend, 3.9), and CD123 APC (Biolegend, 6H6). Following fixation and permeabilization with BD Cytofix/Cytoperm buffers, cells were stained with monoclonal antibodies targeting the intracellular cytokines IL-12p40 PE (a shared IL-12 and IL-23 subunit, Biolegend, C11.5), IL-6 FITC (Biolegend MQ2-13A5), IL-4 BV605 (Biolegend, MP4-25D2), and LAP (TGF-β) PE Cy7 [latency-associated peptide ([55]), Biolegend TW4-2F8]. Data were collected using an LSRII flow cytometer (BD) and analyzed using FlowJo 10.0 software (TreeStar).
Figure 7 Lipidated imidazoquinolines elicit T cell polarizing cytokines primarily from APCs. PBMCs from 6 healthy, adult blood donors were stimulated with 2 μM indicated TLR7/8, TLR4, or combination TLR4 + TLR7/8 agonists. After 1 h, brefeldin A (GolgiPlug) was added and cells were incubated for a further 5 h. Cells were then harvested and stained with surface antibodies for phenotyping, fixed and permeablized and stained with antibodies to detect intracellular cytokines. (A) Frequency of IL-12/IL-23+ cells, (B) frequency of IL-6+ cells, (C) frequency of TGFβ (LAP)+ cells, and (D) frequency of IL-4+ cells.

human PBMCs [4] = test: Human PBMC secreted cytokines (Luminex); assay type: cell-based; conditions: for pro-inflammatory and Th1/Th17 biasing cytokines, concentrations and frequencies: secreted and intracellular cytokine data
Protocol: as §1
For Luminex assays, supernatants were harvested from treated human PBMCs following 18–24 h of incubation. Supernatants were analyzed using Luminex multiplex panel for analytes IL-1β, IL-12p70, IL-23, IL-6, TNFα, IFNα, and IL-4 (R&D Systems) per the manufacturer's instructions. Multiplex analysis was performed using a Luminex 200 instrument (Luminex Corporation) and analyzed with StarStation2.3 software.
Figure 6 Lipidated imidazoquinolines elicit a Th1/Th17-inducing innate cytokine profile from human PBMCs. PBMCs from 6 healthy, adult blood donors were stimulated with indicated concentrations of TLR7/8 agonists with and without a TLR4 agonist. Secreted cytokines were measured after 24 h via Luminex assay. Supernanant concentrations of (A) IL-12p70, (B) IL-23, (C) IL-1β, and (D) IL-4 were determined. […] Note that for each cytokine measured, the y-axis scale used for the left and right plots is identical for ease of comparison.

human TLR7 = molecular target: T1, human TLR7 (Homo sapiens, UniProt Q9NYK1); test: cell-based
T1 sequence (Q9NYK1 27-1049): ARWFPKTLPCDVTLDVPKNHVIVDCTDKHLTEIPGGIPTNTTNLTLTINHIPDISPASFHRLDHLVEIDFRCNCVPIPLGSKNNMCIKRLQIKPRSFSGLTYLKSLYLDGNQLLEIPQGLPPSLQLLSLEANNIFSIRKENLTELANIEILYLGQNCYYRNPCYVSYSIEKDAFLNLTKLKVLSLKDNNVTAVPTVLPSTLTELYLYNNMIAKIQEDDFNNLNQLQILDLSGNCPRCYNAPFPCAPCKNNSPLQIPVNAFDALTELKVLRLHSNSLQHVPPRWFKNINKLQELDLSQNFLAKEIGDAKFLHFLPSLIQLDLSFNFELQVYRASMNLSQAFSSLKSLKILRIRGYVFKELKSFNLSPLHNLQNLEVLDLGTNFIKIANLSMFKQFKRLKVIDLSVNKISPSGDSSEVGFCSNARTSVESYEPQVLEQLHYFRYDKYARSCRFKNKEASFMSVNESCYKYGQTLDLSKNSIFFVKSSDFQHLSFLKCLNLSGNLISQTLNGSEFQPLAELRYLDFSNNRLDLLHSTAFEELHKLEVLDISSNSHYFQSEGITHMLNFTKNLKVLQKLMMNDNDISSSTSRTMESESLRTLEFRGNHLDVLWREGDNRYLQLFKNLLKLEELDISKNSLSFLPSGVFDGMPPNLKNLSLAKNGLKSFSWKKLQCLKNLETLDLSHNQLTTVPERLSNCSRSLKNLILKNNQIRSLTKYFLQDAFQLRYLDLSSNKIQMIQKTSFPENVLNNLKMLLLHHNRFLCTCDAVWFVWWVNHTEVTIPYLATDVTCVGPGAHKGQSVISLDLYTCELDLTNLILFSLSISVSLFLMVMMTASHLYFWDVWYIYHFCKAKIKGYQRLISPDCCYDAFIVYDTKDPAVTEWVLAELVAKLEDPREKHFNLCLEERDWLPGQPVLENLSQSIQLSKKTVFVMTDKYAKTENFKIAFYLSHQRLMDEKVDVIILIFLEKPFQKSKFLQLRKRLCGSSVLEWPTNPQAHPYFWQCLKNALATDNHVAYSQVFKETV

| Structure (SMILES) | average fold change of IgG2a vs IgG1 titers over A/Vic alone ([1]; 14 days post-primary (14dp1)) | influenza-specific T cell response (cytokine production of restimulated splenocytes) [2] | frequency of mDC producing IL-12p40 (human PBMCs [3]; 2 μM) | frequency of mDC and classical monocytes expressing TGFβ (LAP) (human PBMCs [3]; compound alone, 2 μM) | frequency of mDC and classical monocytes expressing TGFβ (LAP) (human PBMCs [3]; in combination with CRX-601, 2 μM) | IFNα secretion (human PBMCs [4]; 24 h) | IL-12p70 production (human PBMCs [4]; with CRX-601 added at a 1:10 ratio, 24 h) | EC50 (human TLR7) | average fold change of IgG2a vs IgG1 titers over A/Vic alone ([1]; mouse, in vivo) | IL-17 response compared to A/Vic antigen alone ([2]; challenge study, 10 μg/mouse alone, 5dp2) | frequency of classical monocytes producing IL-12p40 (human PBMCs [3]; 2 μM) | IL-1β production (human PBMCs [4]; compound alone, 24 h) | IL-12p70 production (human PBMCs [4]; compound alone, 24 h) | IL-23 production (human PBMCs [4]; compound alone, 24 h) | pro-inflammatory and Th1/Th17 biasing cytokines, concentrations and frequencies (human PBMCs [4]) | frequencies of CD8 IFNγ+ cells ([2]; high dose 10 μg/mouse, with or without a TLR4 agonist, 5dp2) |
| --- | --- | --- | --- | --- | --- | --- | --- | --- | --- | --- | --- | --- | --- | --- | --- | --- |
| CCCCc1nc2c(N)nc3ccccc3c2n1CCO [UM-3001] | approximately equal increase in both IgG2a and IgG1 titers | did not exhibit any significantly increased cytokine production | approximately 20% | low frequencies | low frequencies | not | boosted IL-12p70 production | 1.12 µM | – | – | – | – | – | – | – | – |
| CCCCCCCCCCCCCCCC(=O)OC[C@H](COCCOCCOCCOP(=O)(O)OCCn1c(CCCC)nc2c(N)nc3ccccc3c21)OC(=O)CCCCCCCCCCCCCCC [UM-3003] | – | primarily a Th1 influenza-specific response | Lower frequencies | – | – | secreted; also recorded: most potent inducer of IFNα | – | 34.7 µM | IgG2a titers were increased more than IgG1 titers | no longer elicited a significantly higher IL-17 response | Lower frequencies | low concentrations | low levels | low concentrations | low concentrations and low frequencies | – |
| CCCCCCCCCCCCCCCC(=O)OC[C@H](COCCOCCOCCOCCOCCOCCOP(=O)(O)OCCn1c(CCCC)nc2c(N)nc3ccccc3c21)OC(=O)CCCCCCCCCCCCCCC [UM-3004] | IgG2a titers were increased more than IgG1 titers | primarily a Th1 influenza-specific response | Lower frequencies | – | – | secreted | – | 60.5 µM | – | – | Lower frequencies | – | – | – | – | – |
| CCCCCCCC/C=C\CCCCCCCC(=O)OC[C@H](COP(=O)(O)OCCc1ccc2c(c1)nc(N)c1nc(CCCC)n(CCO)c12)OC(=O)CCCCCCC/C=C\CCCCCCCC [UM-3005] | – | primarily a Th1 influenza-specific response | approximately 20% | – | – | secreted | – | 499 µM | IgG2a titers were increased more than IgG1 titers | – | approximately 20% | – | – | – | highest concentrations and frequencies | significantly increased |
